The record followed here is patent publication US5914341A, “Inhibitors of farnesyl-protein transferase” (Merck & Co., Inc., priority 1998, dated 1999).

Where a name gives a salt, the structure may show the parent alone.

The experiment concerns the target T1, human FPTase (Homo sapiens, UniProt P49354+P49356).
T1 construct: made in house
As to the kind of experiment: In vitro inhibition of ras farnesyl transferase (human FPTase assay). The class given is biochemical. The following applies: [3H]-FPP incorporation, 100 nM Ras-CVIM substrate, 30 min; read-out: IC50, inhibitory activity against human FPTase.

Turning to `N#Cc1ccc(Cn2cncc2COC(=O)Nc2cccc(Cl)c2)cc1` [Example 1, N-(3-chlorophenyl)-O-[1-(4-cyanobenzyl)-5-imidazolylmethyl]-carbamate hydrochloride], the IC50 is < 30 µM.

`CCCCCN(C(=O)OCc1cncn1Cc1ccc(C#N)cc1)c1cccc(Cl)c1` [Example 2, N-(3-chlorophenyl)-N-(n-pentyl)-O-[1-(4-cyanobenzyl)-5-imidazolylmethyl]carbamate hydrochloride]: the concentration for half-maximal inhibition (IC50) is < 30 µM.

As usually defined, the IC50 is the concentration at which inhibition is half-maximal.
